Experimental data taken from patent EP4461287A1, “SKIN CARE COSMETIC COMPOSITION” (Creaciones Aromáticas Industriales, S.A., priority 2023, dated 2024).

Key:
[1] = Cutaneous penetration by Franz cell diffusion, HPLC quantification in the receptor solution; format: in vitro ADME; conditions: 20 h, pig skin, 32°C, receptor PBS pH 7.4, 25 µl applied
Experimental: Cutaneous penetration of free acetylhexapeptide-8 and encapsulated acetylhexapeptide-8 (nanocapsule of the present invention) was determined by means Franz cells diffusion. The pig skin samples were used to carry out the experiment, cut into circles 2.5 cm in diameter. The skin was assembled on the receptor compartment of a Franz diffusion cell system with the stratum corneum facing up towards the donor compartment. As a solution for the receptor, 18 ml of phosphate buffered saline (PBS) pH 7.4 stirred by a magnetic rod at 700 rpm were utilized. A 25 µl aliquot of each of the assay formulations was applied on the pig skin. The Franz diffusion cells were kept at 32°C, and after 20 h of incubation, the receptor solution was analyzed by HPLC (I=220 nm) to quantify the amount of acetylhexapeptide-8 was penetrated the skin. Triplicates of the assay were done.
HPLC analysis was performed utilizing a Waters 996 instrument with diode array detector equipped with Waters 2695 separations module and Millenium software; a C18 4.6x150 mm 5 µm reversed phase column by Waters was used. […]
The quantification of acetylhexapeptide-8 in the fluid (PBS) of the receptor chamber was evaluated through HPLC at 20 hours after application of 25 µL of the two solutions on the pig skin.

[2] = tested on: chromaffin cells; assay: Inhibition of Ca2+-induced catecholamine ([3H]noradrenaline) release in digitonin-permeabilized chromaffin cells; format: cell-based, bovine
Experimental: Chromaffin cell cultures were prepared from bovine adrenal glands by collagenase digestion and then separated from debris and erythrocytes by centrifugation. Briefly, the cells were maintained in monolayer cultures and used between the third and sixth day after plating. All the experiments were carried out at 37°C. Secreted neurotransmitter [^3H]noradrenaline was determined in cells permeabilized with digitonin. Neurotransmitter (catecholamines) release was stimulated by addition of 10 µM) Ca^2+.
To evaluate the enhancement of this activity of encapsulated Acetylhexapeptide-8, the inhibitory capacity on Ca^2+-induced catecholamine release was measured in digitonin-permeabilized chromaffin cells culture.
In particular, the activity of the free peptide free (acetylhexapeptide-8), the peptide encapsulated in Policaprolactone-Chitosan (Acetylhexapeptide-8@PCL-Chi) and the peptide encapsulated with sodium hyaluronate (HA) in PCL-Chi-HA (Acetylhexapeptide-8-HA@PCL-Chi-HA) (present invention) were compared.

[3] = Moisturizing efficacy: transepidermal water loss (TEWL) study by corneometry on forearms of volunteers; format: in vivo; conditions: forearm, women 45-50 years
Experimental: The transpidermal water loss (TEWL) study by corneometry was performed to compare the moisturizing activity of the composition of the present invention and its main components.
The assay was carried out on 20 women between the ages 45 and 50 years. None of the patients had suffered or had any medical history or relevant skin pathologies.
The volunteers were divided into four groups. Daily, for 7 days, the assigned sample was applied to one of the forearms of each group (group 1 sample with free sodium hyaluronate, group 2 sample with free Acetylhexapeptide-8, group 3 sample with free sodium hyaluronate and Acetylhexapeptide-8 and group 4 sample with complete encapsulation (Acetylhexapeptide-8, sodium hyaluronate, polycaprolactone and chitosan). The opposite forearm of each volunteer was the control.
Measurements were taken 2 hours and 7 days after the first application. Epidermal capacitance was evaluated using a CM 825 Corneometer, which allows quantification of surface humidity variations. Measurements were taken in an air-conditioned room (temperature 23°C, relative humidity 34.5%). […]
This trial compared the moisturizing capacity of free HA, free Acetylhexapeptide-8, free HA+Acetylhexapeptide-8 and the composition of the present invention (Acetylhexapeptide-8-HA@PCL-Chi-HA) by measuring the skin loss of water on the forearm of the volunteers analyzed. […]

[4] = tested on: women with facial wrinkles; assay: Clinical anti-wrinkle study, preorbital area, 3D skin topography / confocal microscopy of silicone impressions; format: in vivo; conditions: O/W emulsion twice a day; for Wrinkles reduction (%) 4 wrinkles: at 4 weeks
Experimental: The clinical study was conducted on 40 women with facial wrinkles between 50 and 60 years of age. All volunteers were healthy and without any systemic or skin disease.
Wrinkles were measured using a topographic skin measurement device, a Bio 3D Structure Light Scanner technology, which performs a 3D reconstruction of the image in silicone (ANTERA 3D® and software (Miravex, Ireland).
The patients were divided into two groups, which applied the assigned O/W emulsions twice a day for two months. One group (1) applied a free Acetylhexapeptide-8 emulsion on one side of the preorbital area and an emulsion with Acetylhexapeptide-8 encapsulated in PCL and chitosan on the other side. The second group applied an O/W emulsion with free HA on one area of a preorbital area and another of the cosmetic composition of the present invention (Acetylhexapeptide-8, HA, PCL and chitosan) on the contralateral side. All participants were asked not to use any cosmetics containing ingredients that could interfere with the wrinkle status of the skin during the study period, nor were they subjected to exposure to direct sunlight.
Before the first application, at 4 and 8 weeks of use, silicone impressions were taken and processed by confocal laser scanning microscopy to evaluate the progress of wrinkles. The maximum depth values within the analysis area were taken as representative values of wrinkles, and the percentage reduction of these values before and after application were calculated as the percentage improvement of skin wrinkles.
In this study, measurements of the main roughness parameters such as mean roughness volume and area affected by roughness were obtained. The average roughness volume is the average (three-dimensional) dimension of the depression of the cutaneous microrelief measured in mm^3. The area affected by roughness is the roughness portion of the measured skin area (two-dimensional, measured in mm^2). The improvement was calculated as the percentage change between the images taken before the treatments and two months […].
Reflection mode confocal microscopy and three-dimensional analysis were used to evaluate the different parameters.
For this purpose, the 40 female volunteers were divided into two groups, and each group applied twice daily for 2 months two assigned emulsions, one to each eye in the same preorbital area. Before treatment, at 4 and 8 weeks, the decrease in wrinkles was quantified by 3D images analyzed by confocal microscopy.

Substance: Acetylhexapeptide-8 [Free Acetylhexapeptide-8]
- % Penetration [1]: 14%
- decrease in total catecholamine exocytosis / inhibition of the release of neurotransmitters ([2]; Ca2+-induced release, versus control): 20%
- Cathecolamine release (%) ([2]; stimulated with 10 µM Ca2+, 37°C, control = 100): 80%
- Tewl After 2 hours ([3]; 2 hours after first application, control 16): 15.8 g/m^2h
- Tewl After 7 days ([3]; after 7 days of daily application, control 17): 16.5 g/m^2h
- Wrinkles reduction (%) 4 wrinkles [4]: 20.5%
- Wrinkles reduction (%) 4 wrinkles ([4]; listed as free Acetylhexapeptide-8): 20%
- Wrinkles reduction (%) 8 wrinkles ([4]; at 8 weeks (end of treatment)): 30%
- Decrease area affected by roughness (%) ([4]; at 8 weeks): 31.2%
- Roughness volume decrease (%) ([4]; at 8 weeks): 35%
